Like-named read-outs stand apart in the source and are kept apart here. Starred links: 1 amine or outer side, 2 acyl side, 3 side chain; linkers in the order of their positions; H or OH if unused. Non-standard residues stand in square brackets, D forms with d. Groups on a side chain read outwards from the residue. No end group written: not given here. *: point of attachment. C18 diacid = O=C(O)CCCCCCCCCCCCCCCCC(=O)*; γGlu = O=C(O)[C@H](CCC(=O)[*:2])N[*:1]; αMe4Pal = C[C@](N)(Cc1ccncc1)C(=O)O; αMeY = C[C@](N)(Cc1ccc(O)cc1)C(=O)O; 4Pal = N[C@@H](Cc1ccncc1)C(=O)O; αMeL = CC(C)C[C@](C)(N)C(=O)O; Orn = NCCC[C@H](N)C(=O)O; Aib = CC(C)(N)C(=O)O
How the values were obtained:
Format in all cases: cell-based
hGIPR [1] = target: T1, hGIPR (Homo sapiens, UniProt P48546); assay: Functional cAMP activity in the presence of 1% HSA; conditions: read-out: cAMP Rel EC50, hGIPR
T1 sequence (P48546 22-466): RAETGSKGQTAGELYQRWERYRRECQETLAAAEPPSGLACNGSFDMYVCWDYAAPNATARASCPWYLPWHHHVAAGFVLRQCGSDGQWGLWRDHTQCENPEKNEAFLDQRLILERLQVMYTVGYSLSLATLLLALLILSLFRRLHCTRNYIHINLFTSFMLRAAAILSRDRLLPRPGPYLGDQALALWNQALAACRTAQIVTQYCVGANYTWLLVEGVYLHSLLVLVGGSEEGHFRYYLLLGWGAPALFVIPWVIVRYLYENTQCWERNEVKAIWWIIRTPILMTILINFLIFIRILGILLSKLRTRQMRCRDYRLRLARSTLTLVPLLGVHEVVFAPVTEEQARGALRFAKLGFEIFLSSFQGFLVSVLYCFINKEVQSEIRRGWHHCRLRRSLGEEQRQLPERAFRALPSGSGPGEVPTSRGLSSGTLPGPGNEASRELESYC

hGLP-1R [2] = target: T2, hGLP-1R (Homo sapiens, UniProt P43220); assay: Functional cAMP activity in the presence of 1% HSA; conditions: read-out: cAMP Rel EC50, hGLP-1R
T2 sequence (P43220 24-463): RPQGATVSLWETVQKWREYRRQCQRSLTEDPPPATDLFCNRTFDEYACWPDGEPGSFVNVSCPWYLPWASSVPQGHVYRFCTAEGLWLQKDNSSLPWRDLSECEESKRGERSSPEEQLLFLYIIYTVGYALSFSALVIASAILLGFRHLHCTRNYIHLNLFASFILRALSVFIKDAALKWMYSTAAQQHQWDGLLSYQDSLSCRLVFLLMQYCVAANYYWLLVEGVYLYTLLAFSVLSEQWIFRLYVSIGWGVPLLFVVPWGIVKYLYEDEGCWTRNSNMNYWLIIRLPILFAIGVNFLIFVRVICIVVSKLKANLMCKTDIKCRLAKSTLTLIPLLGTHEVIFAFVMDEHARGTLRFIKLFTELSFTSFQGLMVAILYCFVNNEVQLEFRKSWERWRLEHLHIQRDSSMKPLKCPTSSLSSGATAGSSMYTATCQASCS

human GcgR = human GcgR (Homo sapiens, UniProt P47871); assay: Functional cAMP activity in the presence of 1% HSA; conditions: read-out: cAMP Rel EC50, hGcgR
Chain of human GcgR (P47871 26-477): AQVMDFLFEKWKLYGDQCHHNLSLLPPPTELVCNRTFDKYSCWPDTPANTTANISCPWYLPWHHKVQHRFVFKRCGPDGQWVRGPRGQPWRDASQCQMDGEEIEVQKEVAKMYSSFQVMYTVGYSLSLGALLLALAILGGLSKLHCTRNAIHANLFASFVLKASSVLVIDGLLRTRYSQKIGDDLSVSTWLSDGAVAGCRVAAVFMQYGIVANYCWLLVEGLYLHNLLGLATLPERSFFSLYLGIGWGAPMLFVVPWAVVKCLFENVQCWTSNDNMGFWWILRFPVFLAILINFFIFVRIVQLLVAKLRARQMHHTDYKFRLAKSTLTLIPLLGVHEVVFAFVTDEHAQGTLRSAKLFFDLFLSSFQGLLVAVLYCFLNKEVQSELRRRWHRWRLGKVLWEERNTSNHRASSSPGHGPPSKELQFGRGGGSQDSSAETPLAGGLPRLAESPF

hGIPR [3] = target: T1, hGIPR; assay: Functional cAMP activation in the presence of 0.1% casein (no HSA); conditions: in the presence of 0.1% casein (no HSA); geometric mean; read-out: Relative cAMP EC50, hGIPR;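 as to Relative cAMP EC50, hGIPR: intracellular cAMP rise after 30 min at 37 °C read by HTRF against a standard curve, scaled between buffer alone (0%) and top control ligand concentration (100%), four-parameter fit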;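 as to Relative cAMP EC50, hGLP-1R: intracellular cAMP rise after 30 min at 37 °C read by HTRF, normalized between buffer only (0%) and maximal control ligand (100%), four-parameter variable-slope fit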;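 as to Relative cAMP EC50, hGcgR: intracellular cAMP rise after 30 min at 37 °C, read by HTRF against a cAMP standard curve, scaled from buffer only (0%) to maximal control ligand response (100%)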
hGLP-1R [4] = target: T2, hGLP-1R; assay: as above; conditions: in the presence of 0.1% casein (no HSA); geometric mean; read-out: Relative cAMP EC50, hGLP-1R
hGcgR = hGcgR (Homo sapiens, UniProt P47871); assay: as above; conditions: in the presence of 0.1% casein (no HSA); geometric mean; read-out: Relative cAMP EC50, hGcgR;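 also: intracellular cAMP rise after 30 min at 37 °C, read by HTRF against a cAMP standard curve, scaled from buffer only (0%) to maximal control ligand response (100%)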
Chain of hGcgR (P47871 26-477): as above

[5] = HEK-293 clonal cell line, in the presence of 1% HSA, geometric mean of relative EC50

Substance | EC50 (hGIPR [1]) | EC50 (hGLP-1R [2]) | EC50 (human GcgR) | EC50 (hGIPR [3]) | EC50 (hGLP-1R [4]) | EC50 (hGcgR) | EC50 (hGIPR [1]; [5]) | EC50 (hGLP-1R [2]; [5]) | EC50 (human GcgR; [5])
H-Y[Aib]QGTFTSD[4Pal]SQ[αMeL]LD[Orn]K([dE-γGlu-C18 diacid])AQ[αMe4Pal]QFIQ[αMeY]LIE[Aib]GPSSGEPPPSGGGE-NH2 [Example 1129] | 4.16 nM | 56.6 nM | 796 nM | 0.048 nM | 0.501 nM | 6.11 nM | – | – | –
H-Y[Aib]QGTFTSD[4Pal]SQ[αMeL]LD[Orn]K([γGlu-γGlu-C18 diacid])AQ[Aib]AFIE[αMeY]LLEGGPSSGAPPPSGSEE-NH2 [Example 946] | 57.4 nM | 576 nM | 1950 nM | 0.353 nM | 2.05 nM | 16.5 nM | – | – | –
H-Y[Aib]QGTFTSD[4Pal]SQ[αMeL]LD[Orn]K([γGlu-γGlu-C18 diacid])AQ[αMe4Pal]AFIEYLIAGGPSSGEPPPSGS-NH2 [Example 1007] | 12 nM | 95.1 nM | 636 nM | 0.116 nM | 0.668 nM | 5.34 nM | – | – | –
H-Y[Aib]QGTFTSD[4Pal]SQ[αMeL]LD[Orn]K([γGlu-γGlu-C18 diacid])AQ[αMe4Pal]AFIEYLIAGGPSSGEPPPSGSE [Example 977] | 23 nM | 159 nM | 839 nM | 0.189 nM | 1.1 nM | 7.18 nM | – | – | –
H-Y[Aib]QGTFTSD[4Pal]SQ[αMeL]LD[Orn]K([γGlu-γGlu-C18 diacid])AQ[αMe4Pal]AFIEYLIAGGPSSGEPPPSGSE-NH2 [Example 1008] | 15.2 nM | 126 nM | 1010 nM | 0.14 nM | 1.09 nM | 7.47 nM | – | – | –
H-Y[Aib]QGTFTSD[4Pal]SQ[αMeL]LD[Orn]K([γGlu-γGlu-C18 diacid])AQ[αMe4Pal]AFIEYLIAGGPSSGEPPPSGTEEE-NH2 [Example 986] | – | – | – | 0.299 nM | 3.06 nM | 4.94 nM | 31.3 nM | 380 nM | 702 nM
H-Y[Aib]QGTFTSD[4Pal]SQ[αMeL]LD[Orn]K([γGlu-γGlu-C18 diacid])AQ[αMe4Pal]AFIEYLIA[Aib]GPSSGAPPPSGSEE-NH2 [Example 1091] | 5.79 nM | 145 nM | 550 nM | 0.0592 nM | 1.23 nM | 4.67 nM | – | – | –
H-Y[Aib]QGTFTSD[4Pal]SQ[αMeL]LD[Orn]K([γGlu-γGlu-C18 diacid])AQ[αMe4Pal]AFIEYLIA[Aib]GPSSGEPPPSGSEE-NH2 [Example 1092] | 7.83 nM | 230 nM | 506 nM | 0.0648 nM | 1.33 nM | 3.45 nM | – | – | –
H-Y[Aib]QGTFTSD[4Pal]SQ[αMeL]LD[Orn]K([γGlu-γGlu-C18 diacid])AQ[αMe4Pal]AFIEYLIE[Aib]GPSSGAPPPSGSEE-NH2 [Example 937] | 19.7 nM | 261 nM | 1160 nM | 0.222 nM | 2.52 nM | 5.52 nM | – | – | –
H-Y[Aib]QGTFTSD[4Pal]SQ[αMeL]LD[Orn]K([γGlu-γGlu-C18 diacid])AQ[αMe4Pal]AFIEYLIE[dA]GPSSGAPPPSGS-NH2 [Example 1017] | 28.3 nM | 118 nM | 649 nM | 0.228 nM | 1.16 nM | 6.47 nM | – | – | –
H-Y[Aib]QGTFTSD[4Pal]SQ[αMeL]LD[Orn]K([γGlu-γGlu-C18 diacid])AQ[αMe4Pal]AFIEYLIE[dA]GPSSGEPPPSGS-NH2 [Example 1019] | 21.3 nM | 161 nM | 579 nM | 0.169 nM | 1.33 nM | 4.36 nM | – | – | –
H-Y[Aib]QGTFTSD[4Pal]SQ[αMeL]LD[Orn]K([γGlu-γGlu-C18 diacid])AQ[αMe4Pal]AFIE[αMeY]LIA[Aib]GPSSGAPPPSGSEE-NH2 [Example 1107] | 5.29 nM | 59 nM | 864 nM | 0.0447 nM | 0.51 nM | 5.66 nM | – | – | –
H-Y[Aib]QGTFTSD[4Pal]SQ[αMeL]LD[Orn]K([γGlu-γGlu-C18 diacid])AQ[αMe4Pal]AFIE[αMeY]LIA[Aib]GPSSGEPPPSGSEE-NH2 [Example 1094] | 5.86 nM | 64.4 nM | 831 nM | 0.0515 nM | 0.623 nM | 5.84 nM | – | – | –
